What all share (assay): NCI-60 cell line screen, 48 h
In assay [1] the test system is 786-0 renal.
In assay [2] the test system is A549 NSCLC.
Assay [3] relates to CCRF-CEM leukemia.
The subject of assay [4] is HCT-15 colon.
Assay [5] relates to NCI-H226 lung.
For assay [6], the system named is OVCAR-3 ovarian.
Assay [7] deals with SK-OV-3 ovarian.
Assay [8] deals with SNB-75 CNS.
For assay [9], the system named is UACC-257 melanoma.
The test system of assay [10] is UACC-62 melanoma.

Each structure is given as a SMILES string. Where “and” joins values, the source holds several entries; their conditions need not be identical. Identical values can stand only once.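 48-hour exposure; five concentrations; linearly interpolated endpoints. The concentration for 50% growth inhibition is given as GI50. TGI is the concentration that stops growth completely.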 A value given as a limit tells only on which side of the number the result lay.

Consider `O=c1ncc(F)cn1C1OC(CO)C(O)C1O` (stereo not drawn), for which the TGI in assay [1] was above 100 µM; in assay [2] it was above 100 µM; in assay [3], above 63.6 µM; in assay [4], above 100 µM; in [5], above 100 µM; in assay [6], above 67.4 µM. In addition, the TGI in [7] was above 100 µM; in assay [8], above 65.1 µM; in assay [9], above 55.3 µM; in assay [10], above 64.1 µM.

As to `CSc1nc(NC2OC(COC(C)=O)C(OC(C)=O)C(OC(C)=O)C2OC(C)=O)c2c(n1)OCC2=O` (stereo not drawn), the TGI in [1], in assay [2], in [3], in assay [4], in assay [5] and in assay [6] was above 100 µM each time. The TGI in [7], in [8], in assay [9] and in [10] was above 100 µM each time.

Turning to `Cc1csc(/C=C/C(=O)c2nnn(-c3ccnc4c(C(F)(F)F)cccc34)c2C)c1`, the GI50 in assay [1] was above 100 µM; in assay [2] it was 39.7 µM; in [3], 21.9 µM; in [4] it was 57.5 µM; in [5], 53.8 µM; in assay [6], above 100 µM. Also, the GI50 in [7] was 89.1 µM; in assay [8], 27.3 µM; in assay [9], 13.7 µM; in [10], 62.2 µM. The TGI in [1], in assay [2], in assay [3], in [4], in assay [5] and in assay [6] was above 100 µM in each case. Further, the TGI is above 100 µM in assay [7], 99.4 µM in [8], 60.9 µM in assay [9] and above 100 µM in assay [10].

Turning to `Clc1ccc(-c2c3c(nn2-c2ccccn2)CCc2ccccc2-3)cc1Cl`, the GI50 in assay [1] was 85 µM; in assay [2] it was above 100 µM; in assay [3] it was above 100 µM; in [4], above 100 µM; in assay [5], above 100 µM; in assay [6], above 100 µM. Further, the GI50 is above 100 µM in [7], 67.6 µM in [8], above 100 µM in [9] and above 100 µM in assay [10]. The TGI in assay [1], in assay [2], in assay [3], in assay [4], in assay [5] and in assay [6] was above 100 µM throughout. Also, the TGI in assay [7], in assay [8], in assay [9] and in [10] was above 100 µM in each case.

As for `CC(C)=CCC/C(C)=C/CC/C(C)=C/CSc1ccccc1C(=O)O`, the GI50 was 23.1 µM in assay [1]; 28.9 µM in [2]; 32.3 µM in assay [3]; 28.6 µM in assay [4]; 19.9 µM in assay [5]; 37.6 µM in assay [7]. Besides, the GI50 in assay [8] is above 66.4 µM; in assay [9], 30.5 µM. The TGI was 78.9 µM and 32.1 µM in [1]; > 89.4 µM and 43.3 µM in [2]; > 100 µM and 74.2 µM in assay [3]; > 100 µM and 32 µM in [4]; 46.2 µM and 44.1 µM in [5]; 33.8 µM and 30.9 µM in assay [6]. The TGI was > 100 µM and 62.8 µM in assay [7]; > 100 µM and 42.1 µM in [8]; above 100 µM in assay [9]; 35 µM and 34 µM in assay [10].

With `Oc1ccc2ccccc2c1N=Nc1ccsc1`, the TGI in [1], in assay [2], in assay [3], in assay [4], in assay [5] and in [6] was above 100 µM in each case. Moreover, the TGI in assay [7], in assay [8], in assay [9] and in assay [10] was above 100 µM throughout.

On to `NCCOCCOCCNc1nc(-c2ccccc2)nc(N2CCN(c3ccccn3)CC2)n1`, for which the GI50 was 12.6 µM in assay [1]; 14.4 µM in [2]; 14.3 µM in assay [3]; 13.1 µM in [4]; 17.1 µM in [5]; 16.6 µM in [6]. In addition, the GI50 in [7] was 18.8 µM; in [8], 14.3 µM; in [9], 3.23 µM; in [10], 6.76 µM. Moreover, the TGI in [1] turned out to be 26 µM; in assay [2], 30.1 µM; in assay [3] it was 33.2 µM; in [4], 27.9 µM; in assay [5], 32.3 µM; in [6], 30.4 µM. For the same molecule, the TGI in assay [7] was found to be 34.2 µM; in assay [8], 30.2 µM; in [9] it was 12.9 µM; in assay [10], 19.4 µM.

Regarding `C=C1CCC2C3(C)COC(c4ccccc4)OC3CCC2(C)C1/C=C/C1=CCOC1=O` (stereo not drawn), the GI50 in assay [1] is 13 µM; in assay [2] it was 6.87 µM; in [3], 1.89 µM; in assay [4] it was 2.41 µM; in assay [5] it was 3.81 µM; in assay [6], 2.79 µM. Besides, the GI50 was 11.5 µM in assay [7], 2.64 µM in assay [8], 63.4 µM in assay [9] and 6.82 µM in [10]. The TGI in assay [1] is 30 µM; in assay [2] it was 48.1 µM; in [3], 5.65 µM; in assay [4], 11.5 µM; in assay [5] it was 13.5 µM; in assay [6] it was 8.84 µM. Further, the TGI was above 100 µM in assay [7], 10.1 µM in assay [8], above 100 µM in assay [9] and 22.9 µM in [10].

Take `CCC[CH2][Sn]1([CH2]CCC)[O]CC(CN(C)Cc2ccccc2)[O]1` (stereo not drawn): the GI50 was 4.41 µM in [1]; 19.6 µM in assay [2]; 2.37 µM in assay [3]; 8.29 µM in assay [4]; 17.2 µM in [5]; 6.35 µM in assay [6]. The GI50 is 15.6 µM in [7], 3.47 µM in assay [8], 7.85 µM in assay [9] and 4.31 µM in assay [10]. Besides, the TGI came to 16.4 µM in [1]; 38.6 µM in assay [2]; 8.09 µM in assay [3]; 20.3 µM in assay [4]; 35.8 µM in [5]; 18.4 µM in assay [6]. For the same molecule, the TGI in [7] worked out at 33.2 µM; in [8], 16.2 µM; in [9], 20.2 µM; in assay [10] it was 16.1 µM.

(Values after PubChem BioAssay (NCI).)
